This is an account of results in patent US20170157001A1, “Compositions Comprising Strontium and Uses Thereof in the Treatment or Prevention of Gingivitis, Periodontitis, Periodontitis as a Manifestation of Systemic Diseases, and Necrotizing Periodontal Diseases” (priority 2006, published 2017).

The conditions of data set [1]: relative to cholecalciferol itself; cited from earlier work.
The nature of data set [2]: Determination of solubility velocity by ICP-MS in 0.1 M hydrochloride solution. To be noted: in hydrochloride 0.1 M, 37° C., 84Sr signal.
Procedure: Determination of solubility velocity by Inductively Coupled Plasma-Mass Spectrometry (ICP-MS)
The solubility is measures as strontium signals over time using ICP-MS. Using this technique it is possible to follow multiple isotopes of the element, here, ^84Sr, ^86Sr, ^87Sr and ^88Sr.
A hydrochloride solution (0.1 M) was added to the sample and the sample then immediately enters, by means of a peristaltic pump, the atomizer of the ICP-MS apparatus. The pump speed was 4.4 ml/min. […] The temperature of the HCl solution was 37° C.
The solubility velocity of the compound is obtained by analysing the slopes of the front curves. The first curve represents the experiment and the second curve the apparatus, thus the difference between the slopes of the two curves are used to calculate the solubility velocity by division with the top value.

`C=C1CC[C@H](O)C/C1=C/C=C1\CCC[C@]2(C)[C@@H]([C@H](C)CCCC(C)(C)O)CC[C@@H]12` [25-hydroxycholecalciferol]: the “times more effective in terms of bioavailability than cholecalciferol” value in data set [1] is “five”. Regarding `[Cl-].[Cl-].[Sr+2]` [strontium chloride], the solubility velocity result in data set [2] is on record as “very high”. `C=C1/C(=C\C=C2/CCC[C@]3(C)[C@@H]([C@H](C)CCCC(C)(C)O)CC[C@@H]23)C[C@@H](O)C[C@@H]1O` [1,25 dihydroxycholecalciferol]: in data set [1], the “times more effective in terms of bioavailability than cholecalciferol” value is recorded as “ten”.
